Experimental data from US12466822B2, “Heterocyclic compounds as immunomodulators” (Incyte Corporation, priority 2016, dated 2025).

Target: T1, PD-1/PD-L1 protein/protein interaction (recombinant human PD-L1 protein (19-238), recombinant human PD-1 protein (25-167)) (Homo sapiens, UniProt Q9NZQ7)
T1 construct: Recombinant human PD-L1 protein (19-238) with a His-tag at the C-terminus; purchased AcroBiosystems PD1-H5229 (PD-L1-His); PD1-H5257 (PD-1-Fc)
Assay: PD-1/PD-L1 Homogeneous Time-Resolved Fluorescence (HTRF) Binding Assay
Conditions: 25° C., PBS buffer (pH 7.4), 40 minutes preincubation with inhibitors
Method: The assays were conducted in a standard black 384-well polystyrene plate with a final volume of 20 μL. Inhibitors were first serially diluted in DMSO and then added to the plate wells before the addition of other reaction components. The final concentration of DMSO in the assay was 1%. The assays were carried out at 25° C. in the PBS buffer (pH 7.4) with 0.05% Tween-20 and 0.1% BSA. Recombinant human PD-L1 protein (19-238) with a His-tag at the C-terminus was purchased from AcroBiosystems (PD1-H5229). Recombinant human PD-1 protein (25-167) with Fc tag at the C-terminus was also purchased from AcroBiosystems (PD1-H5257). PD-L1 and PD-1 proteins were diluted in the assay buffer and 10 μL was added to the plate well. Plates were centrifuged and proteins were preincubated with inhibitors for 40 minutes. The incubation was followed by the addition of 10 μL of HTRF detection buffer supplemented with Europium cryptate-labeled anti-human IgG (PerkinElmer-AD0212) specific for Fc and anti-His antibody conjugated to SureLight®-Allophycocyanin (APC, PerkinElmer-AD0059H). After centrifugation, the plate was incubated at 25° C. for 60 min. before reading on a PHERAstar FS plate reader (665 nm/620 nm ratio). Final concentrations in the assay were […], 10 nM PD-L1, 1 nM europium anti-human IgG and 20 nM anti-His-Allophycocyanin. IC50 determination was performed by fitting the curve of percent control activity versus the log of the inhibitor concentration using the GraphPad Prism 5.0 software.

T1 sequence (Q9NZQ7 19-238): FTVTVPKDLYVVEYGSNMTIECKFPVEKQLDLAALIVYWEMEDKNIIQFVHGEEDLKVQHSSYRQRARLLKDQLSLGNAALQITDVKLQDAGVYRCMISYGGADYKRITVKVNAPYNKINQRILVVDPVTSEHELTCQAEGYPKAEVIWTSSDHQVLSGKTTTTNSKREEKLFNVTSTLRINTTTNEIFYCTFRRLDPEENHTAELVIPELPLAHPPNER

| IC50 | Structure (SMILES) |
| --- | --- |
| ≤ 10 nM | Cn1cc(CNCC(C)(C)O)cc(C(=O)Nc2cccc(-c3cccc(Nc4nccc5cc(CN6CC(C(=O)O)C6)cnc45)c3Cl)c2Cl)c1=O [Example 18, 1-((8-(2,2′-dichloro-3′-(5-((2-hydroxy-2-methylpropylamino)methyl)-1-methyl-2-oxo-1,2-dihydropyridine-3-carboxamido)biphenyl-3-ylamino)-1,7-naphthyridin-3-yl)methyl)azetidine-3-carboxylicacid] |
| ≤ 10 nM | Cc1c(Nc2nccc3cc(CNCCO)cnc23)cccc1-c1cccc(NC(=O)c2ccc(CNC3(C(=O)O)CCC3)cn2)c1F [Example 2, 1-(((6-(2-fluoro-3′-(3-((2-hydroxyethylamino)methyl)-1,7-naphthyridin-8-ylamino)-2′-methylbiphenyl-3-ylcarbamoyl)pyridin-3-yl)methyl)amino)cyclobutanecarboxylic acid] |
| ≤ 10 nM | Cc1c(COc2cc(OCc3cncc(C#N)c3)c(CN3CC[C@@H](C(=O)O)C3)cc2Cl)cccc1-c1cccc(Nc2nccc3cc(CN4CC[C@@H](O)C4)cnc23)c1C [Example 44, (R)-1-(5-chloro-2-((5-cyanopyridin-3-yl)methoxy)-4-((3′-((3-(((R)-3-hydroxypyrrolidin-1-yl)methyl)-1,7-naphthyridin-8-yl)amino)-2,2′-dimethyl-[1,1′-biphenyl]-3-yl)methoxy)benzyl)pyrrolidine-3-carboxylic acid] |
| ≤ 10 nM | Cc1c(Nc2nccc3cc(CN[C@H]4CCC[C@@H]4O)cnc23)cccc1-c1cccc(NC(=O)c2nc3c(n2C)CCN(C[C@H]2CC[C@H](C(=O)O)CC2)C3)c1Cl [Example 51, trans-4-((2-(2-chloro-3′-(3-(((1S,2S)-2-hydroxycyclopentylamino)methyl)-1,7-naphthyridin-8-ylamino)-2′-methylbiphenyl-3-ylcarbamoyl)-1-methyl-6,7-dihydro-1H-imidazo[4,5-c]pyridin-5(4H)-yl)methyl)cyclohexanecarboxylic acid] |
| ≤ 10 nM | Cc1c(Nc2nccc3cc(CN4CC[C@H](O)C4)cnc23)cccc1-c1cccc(-c2nc3c(o2)CN(C(=O)CN(C)C)C3)c1C [Example 38, (S)-2-(dimethylamino)-1-(2-(3′-((3-((3-hydroxypyrrolidin-1-yl)methyl)-1,7-naphthyridin-8-yl)amino)-2,2′-dimethyl-[1,1′-biphenyl]-3-yl)-4,6-dihydro-5H-pyrrolo[3,4-d]oxazol-5-yl)ethan-1-one] |
| ≤ 10 nM | Cc1c(Nc2ncnc3cc(CN4CC[C@@H](O)C4)cnc23)cccc1-c1cccc(NC(=O)c2nc3c(n2C)CCN(C2CCC(C)(C(=O)O)CC2)C3)c1Cl (single isomer, unassigned) [Example 68-peak2] |
| ≤ 10 nM | Cc1c(Nc2nccc3cc(CN4CC[C@@H](O)C4)cnc23)cccc1-c1cccc(-c2nc3c(o2)CN(C(=O)CN2CC[C@H](C(=O)O)C2)C3)c1C [Example 40, (S)-1-(2-(2-(3′-((3-(((R)-3-hydroxypyrrolidin-1-yl)methyl)-1,7-naphthyridin-8-yl)amino)-2,2′-dimethyl-[1,1′-biphenyl]-3-yl)-4,6-dihydro-5H-pyrrolo[3,4-d]oxazol-5-yl)-2-oxoethyl)pyrrolidine-3-carboxylic acid] |
| ≤ 10 nM | Cc1c(Nc2nccc3cc(CN4CC[C@@H](O)C4)cnc23)cccc1-c1cccc(NC(=O)c2nc3c(n2C)CCN(C(C)CC(=O)O)C3)c1Cl (stereo partly drawn) [Example 54, 3-(2-(2-chloro-3′-(3-(((R)-3-hydroxypyrrolidin-1-yl)methyl)-1,7-naphthyridin-8-ylamino)-2′-methylbiphenyl-3-ylcarbamoyl)-1-methyl-6,7-dihydro-1H-imidazo[4,5-c]pyridin-5(4H)-yl)butanoic acid] |
| ≤ 10 nM | Cc1c(Nc2nccc3cc(CN4CC[C@@H](C(=O)O)C4)cnc23)cccc1-c1cccc(-c2nc3c(o2)CN(C(=O)CN(C)C)C3)c1C [Example 84, (R)-1-((8-((3′-(5-(dimethylglycyl)-5,6-dihydro-4H-pyrrolo[3,4-d]oxazol-2-yl)-2,2′-dimethyl-[1,1′-biphenyl]-3-yl)amino)-1,7-naphthyridin-3-yl)methyl)pyrrolidine-3-carboxylic acid] |
| ≤ 10 nM | Cc1c(Nc2nccc3cc(CNCCO)cnc23)cccc1-c1cccc(NC(=O)c2ccc(CNCCO)cn2)c1F [Example 4, N-(2-fluoro-3′-((3-(((2-hydroxyethyl)amino)methyl)-1,7-naphthyridin-8-yl)amino)-2′-methyl-[1,1′-biphenyl]-3-yl)-5-(((2-hydroxyethyl)amino)methyl)picolinamide] |
| ≤ 10 nM | Cc1c(Nc2nccc3cc(CN4CC[C@@H](O)C4)cnc23)cccc1-c1cccc(Nc2ncnc3cc(CNCCO)cnc23)c1C [Example 24, (R)-1-((8-(3′-(7-((2-hydroxyethylamino)methyl)pyrido[3,2-d]pyrimidin-4-ylamino)-2,2′-dimethylbiphenyl-3-ylamino)-1,7-naphthyridin-3-yl)methyl)pyrrolidin-3-ol] |
| ≤ 10 nM | Cc1c(NC(=O)c2nc3c(n2C)CCN(C[C@H]2CC[C@@H](C(=O)O)CC2)C3)cccc1-c1cccc(Nc2nccc3cc(CN4CC[C@@H](O)C4)cnc23)c1C [Example 99, Cis-4-((2-(3′-(3-(((R)-3-hydroxypyrrolidin-1-yl)methyl)-1,7-naphthyridin-8-ylamino)-2,2′-dimethylbiphenyl-3-ylcarbamoyl)-1-methyl-6,7-dihydro-1H-imidazo[4,5-c]pyridin-5(4H)-yl)methyl)cyclohexanecarboxylic acid] |
| ≤ 10 nM | Cc1c(Nc2nccc3cc(CN4CC[C@H](O)C4)cnc23)cccc1-c1cccc(Nc2nccc3cc(CN4CC[C@@H](C(=O)O)C4)cnc23)c1C [Example 12, (R)-1-((8-((3′-((3-(((S)-3-hydroxypyrrolidin-1-yl)methyl)-1,7-naphthyridin-8-yl)amino)-2,2′-dimethyl-[1,1′-biphenyl]-3-yl)amino)-1,7-naphthyridin-3-yl)methyl)pyrrolidine-3-carboxylic acid] |
| ≤ 10 nM | Cc1c(NC(=O)c2nc3c(n2C)CCN(C2CCC(C(=O)O)CC2)C3)cccc1-c1cccc(Nc2nccc3cc(CN4CC[C@@H](O)C4)cnc23)c1C (single isomer, unassigned) [Example 64-peak1] |
| ≤ 10 nM | Cc1c(Nc2nccc3cc(CN4CC[C@@H](O)C4)cnc23)cccc1-c1cccc(-c2nc3c(o2)CN(C(=O)CN2CC(C(=O)O)C2)C3)c1C [Example 39, (R)-1-(2-(2-(3′-((3-((3-hydroxypyrrolidin-1-yl)methyl)-1,7-naphthyridin-8-yl)amino)-2,2′-dimethyl-[1,1′-biphenyl]-3-yl)-4,6-dihydro-5H-pyrrolo[3,4-d]oxazol-5-yl)-2-oxoethyl)azetidine-3-carboxylic acid] |
| ≤ 10 nM | Cc1c(Nc2nccc3cc(CN4CC[C@@](C)(C(=O)O)C4)cnc23)cccc1-c1cccc(NC(=O)c2nc3c(n2C)CCNC3)c1Cl [Example 45, (R)-1-((8-(2′-Chloro-2-methyl-3′-(1-methyl-4,5,6,7-tetrahydro-1H-imidazo[4,5-c]pyridine-2-carboxamido)biphenyl-3-ylamino)-1,7-naphthyridin-3-yl)methyl)-3-methylpyrrolidine-3-carboxylic acid] |
